Source: US11440939B2, “Anticancer peptides” (IDP DISCOVERY PHARMA, S.L., priority 2017, dated 2022)
Numbered stars: 1 amine (or outer) side, 2 acyl side, 3 side chain; on linkers, the order of the positions; unused ones are H or OH. Bridge positions count the residues as written; N and C are the ends. Square brackets hold non-standard residues; d marks the D form. Peptide text beside a SMILES is read from it. ξ: configuration not given here. ξαMeNle(6-ylidene) = CC(CCCC=[*:3])(N[*:1])C(=O)[*:2]; X1 = CC(CCCCCCC=[*:3])(N[*:1])C(=O)[*:2]; R8 = C=CCCCCCC[C@@](C)(N)C(=O)O; S5 = C=CCCC[C@](C)(N)C(=O)O

Experiments:
Assay type in all cases: cell-based
NCI-H187 = settings: 72 h
Description: NCI-H187, epithelial (small cell lung cancer, SCLC), ATCC-CRL-5804;
(§1) Cell line MCF-7 was cultured in incubator under CO2 (6%) at 37° C. in DMEM high glucose (Dulbecco's Modified Eagle Solution, Gibco-BRL 31966-21) medium with 10% fetal bovine serum inactivated (FBS) (Gibco-BRL 10106-169). Cell lines HL-60, NCI-H524, NCI-H526, NCI-H69, NCI-H82, NCI-H187 and H5B were cultured in an incubator at 37° C. in RPMI-1640 (Sigma R8758) medium with 10% of fetal bovine serum inactivated (FBS) and 2 mM glutamine (Sigma G7513). Cell line NCI-H510A was cultured in incubator in F12K medium with 10% of fetal bovine serum inactivated (FBS). Cell line GBM-18 and GBM-27 were cultured in incubator under CO2 (6%) at 37° C. in complete medium (Neurobasal+B27+Glutamax+Growth factors).
(§2) During the amplification step and the assays, adherent cells were rinsed with DPBS (Dulbecco's Phosphate Buffered Saline, Sigma D1283) three times and afterward treated for 5 minutes with trypsin ([…]) (Gibco-BRL, 15400054) in solution of DPBS at 37° C., and, once detached, transferred in the culturing medium. No-adherent cells were centrifuged and transferred in the culturing medium. Cells were counted in a Neubauer chamber after labelling with Tripan-Blue.
(§3) MCF-7, NCI-H187, NCI-H69, NCI-H526 and H5B cells were seeded at a density of 5000 cells/well; NCI-H524 and NCI-H82 were seeded at a density of 2500 cells/well; HL-60 and NCI-H510A at 10000 cells/well in 100 μl of medium in 96 well plates. After 24 h, the compounds to be tested were added to calculate the dose/response curve at the starting concentration of 100 μM with serial dilutions (1:1). Controls were the untreated cells. Each experiment was performed in triplicate.
(§4) Cells were incubated during 72 h in incubator under CO2 atmosphere at 37° C. Cell viability was measured by means of MTT (3-(4,5-dimethylthiazol-2-yl)-2,5-diphenyltetrazolium bromide) assay, Alamar Blue® (Biosource DAL1100) and Hexosaminidase activity test, consecutively, following manufacturer instructions.
(§5) MTT: 1. Stock solution of MTT (475989 Calbiochem) was 5 mg/ml in PBS 1×. As negative control (experiment noise) 3 wells were treated with 20 μl/well of a solution of SDS 10% in H2O. The same control was used for Alamar Blue/Hexosaminidase. 10 μl/well of MTT solution were added and the plate was incubated for 3-4 hr. The medium was discarded and 100 μl of extracting buffer (PBS 1×, 15% SDS, 50% […] N,N-Dimethylformamide, pH 4,7) were added to each well. Plates were incubated for 16 h at room temperature under orbital shaking. Absorbance at 570 nm was finally measured.
(§6) Alamar Blue: 10 μl Alamar Blue solution was added to each well and the plates were incubated for […] in the incubator. Fluorescence ratio at 535/590 (excitation/emission) was measured in Cytofluor (Millipore) fluorimeter. Blank control was determined by lysis of untreated cells with con 2% of Triton X100, right before adding Alamar Blue solution.
(§7) Hexosaminidase activity test: after Alamar Blue lecture, medium was discarded and plates were rinsed once with PBS. 60 μl hexosaminidase substrate (p-nitrophenol-N-acetyl-beta-D-glucosamide 7.5 mM [Sigma N-9376], sodium citrate 0.1 M, pH 5.0, 0.25% Triton X-100) was added to each well and the plates were incubated at 37° C. for 2-5 h, according to the cell type (hexosaminidase activity changes according to the cell type). […] Blank control was the same as described before.
(§8) Data analysis was performed calculating the percentage of cell viability normalized vs. the values of negative control, which was considered equal to 100%. The dose/response curve was fitted through the sigmoidal equation dose-response (variable slope) and the EC50 values were calculated as follow: Y=Bottom+(Top−Bottom)/(1+10^{[(Log EC50−X)*HillSlope]},

NCI-H510A = settings: 72 h
Description: NCI-510A, epithelial (small cell lung cancer, SCLC), ATCC-HBT-124; and Hepatocytes (normal liver), from a donor was provided by Foundation DTI-Donation & Transplantation Institute from surgical wastes and from organs not suitable for transplantation
as §1, §2, §3, §4, §5, §6, §7, §8

cancer cell lines = experiment: Inhibition of cancer cell proliferation, general statements
Description: as §3, §4, §8

NCI-H82 = settings: 72 h
Description: NCI-H82, epithelial (small cell lung cancer, SCLC), ATCC-CRL-5811;
as §1, §2, §3, §4, §5, §6, §7, §8

SMILES	EC50 (NCI-H187)	EC50 (NCI-H510A)	inhibition of cancer cell proliferation (in words) (cancer cell lines)	EC50 (NCI-H82)
CC(C)C[C@@H]1NC(=O)[C@H](C)NC(=O)[C@H](C)NC(=O)[C@H](Cc2ccccc2)NC(=O)[C@](C)(NC(=O)[C@H](CC(C)C)NC(=O)[C@H](CC(N)=O)NC(=O)[C@@H](NC(=O)[C@H](CC(C)C)NC(=O)[C@H](CCCCN)NC(=O)[C@@H](NC(=O)[C@@H](N)CCCNC(=N)N)C(C)C)C(C)C)CCCCCCC=CCCC[C@@](C)(C(=O)N[C@H](C(=O)N2CCC[C@H]2C(N)=O)C(C)C)NC(=O)[C@H](CCC(=O)O)NC(=O)[C@H](CCCNC(=N)N)NC1=O [IDP-H14-A09] (H-RVKLVNL[R8]FAALRE[S5]VP-NH2; staple 8-15; N-terminus assumed)	~7.5 µM	~7.5 µM	active	~7.5 µM
CC(C)C[C@H](NC(=O)[C@H](CCCCN)NC(=O)[C@@H](NC(=O)[C@@H](N)CCCNC(=N)N)C(C)C)C(=O)N[C@H](C(=O)N[C@@H](CC(N)=O)C(=O)N[C@@H](CC(C)C)C(=O)NC1(C)CCCCCCC=CCCCC(C)(C(=O)N[C@H](C(=O)N2CCC[C@H]2C(N)=O)C(C)C)NC(=O)[C@H](C)NC(=O)[C@H](CCCNC(=N)N)NC(=O)[C@H](CC(C)C)NC(=O)[C@H]([C@@H](C)O)NC(=O)[C@H](C)NC(=O)[C@H](Cc2ccccc2)NC1=O)C(C)C (stereo partly drawn) [IDP-H14-A12] (H-RVKLVNL[X1]FATLRA[ξαMeNle(6-ylidene)]VP-NH2; staple 8-15; N-terminus and C-terminus assumed)	~7.5 µM	~7.5 µM	active	~7.5 µM
CC(C)C[C@H](NC(=O)[C@H](CCCCN)NC(=O)[C@@H](NC(=O)[C@H](CCCNC(=N)N)NC(=O)[C@H](CCCNC(=N)N)NC(=O)[C@H](CCCNC(=N)N)NC(=O)[C@H](CCCNC(=N)N)NC(=O)[C@H](CCCNC(=N)N)NC(=O)[C@H](CCCNC(=N)N)NC(=O)[C@H](CCCNC(=N)N)NC(=O)[C@@H](N)CCCNC(=N)N)C(C)C)C(=O)N[C@H](C(=O)N[C@@H](CC(N)=O)C(=O)N[C@@H](CC(C)C)C(=O)NC1(C)CCCCCCC=CCCCC(C)(C(=O)N[C@H](C(=O)N2CCC[C@H]2C(N)=O)C(C)C)NC(=O)[C@H](CCC(=O)O)NC(=O)[C@H](CCCNC(=N)N)NC(=O)[C@H](CC(C)C)NC(=O)[C@H]([C@@H](C)O)NC(=O)[C@H](C)NC(=O)[C@H](Cc2ccccc2)NC1=O)C(C)C (stereo partly drawn) [IDP-H14-CPP] (H-RRRRRRRRVKLVNL[X1]FATLRE[ξαMeNle(6-ylidene)]VP-NH2; staple 15-22; N-terminus and C-terminus assumed)	~7.5 µM	~7.5 µM		~7.5 µM
CC(C)C[C@H](NC(=O)[C@H](CCCCN)NC(=O)[C@@H](NC(=O)[C@@H](N)CCCNC(=N)N)C(C)C)C(=O)N[C@H](C(=O)N[C@@H](CC(N)=O)C(=O)N[C@@H](CC(C)C)C(=O)N[C@]1(C)CCCCCCC=CCCC[C@@](C)(C(=O)N[C@H](C(=O)N2CCC[C@H]2C(N)=O)C(C)C)NC(=O)[C@H](CCC(=O)O)NC(=O)[C@H](CCCNC(=N)N)NC(=O)[C@H](CC(C)C)NC(=O)[C@H]([C@@H](C)O)NC(=O)[C@H](CCC(N)=O)NC(=O)[C@H](Cc2ccccc2)NC1=O)C(C)C [IDP-H14-Q9] (H-RVKLVNL[R8]FQTLRE[S5]VP-NH2; staple 8-15; N-terminus assumed)	~12.5 µM		active	
CC(C)C[C@H](NC(=O)[C@H](CC(N)=O)NC(=O)[C@@H](NC(=O)[C@H](CC(C)C)NC(=O)[C@H](CCCCN)NC(=O)[C@@H](NC(=O)[C@H](CCCNC(=N)N)NC(=O)[C@H](CCCNC(=N)N)NC(=O)[C@H](CCCNC(=N)N)NC(=O)[C@H](CCCNC(=N)N)NC(=O)[C@H](CCCNC(=N)N)NC(=O)[C@H](CCCNC(=N)N)NC(=O)[C@H](CCCNC(=N)N)NC(=O)[C@@H](N)CCCNC(=N)N)C(C)C)C(C)C)C(=O)NCC(=O)N[C@@H](Cc1ccccc1)C(=O)N[C@@H](C)C(=O)N[C@H](C(=O)N[C@@H](CC(C)C)C(=O)N[C@@H](CCCNC(=N)N)C(=O)N[C@@H](CCC(=O)O)C(=O)N[C@@H](Cc1c[nH]cn1)C(=O)N[C@H](C(=O)N1CCC[C@H]1C(N)=O)C(C)C)[C@@H](C)O [LH02] (H-RRRRRRRRVKLVNLGFATLREHVP-NH2; N-terminus and C-terminus assumed)	~10 µM			~7 µM
